Reference: ChEMBL document CHEMBL1201862, “PubChem BioAssay data set” (2004)
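Each compound was tested at five concentrations against cells in 96-well plates for 48 hours. GI50 marks 50% less growth.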 Active and inactive are the calls of the source. Rule as the data show it: active = GI50 up to about 1.1 µM and inactive = higher.

What was measured:
Test in all cases: NCI-60 cell line screen, 48 h
K562 = test system: K562
OVCAR-8 = test system: OVCAR-8
DU-145 = test system: DU-145
HCT-15 = test system: HCT-15
UACC-62 = test system: UACC-62
SF-268 = test system: SF-268
IGROV-1 = test system: IGROV-1
UO-31 = test system: UO-31
SK-OV-3 = test system: SK-OV-3
SK-MEL-5 = test system: SK-MEL-5
OVCAR-4 = test system: OVCAR-4
OVCAR-5 = test system: OVCAR-5
A549 = test system: A549
T47D = test system: T47D
MOLT-4 = test system: MOLT-4
PC-3 = test system: PC-3
SW-620 = test system: SW-620
HCT-116 = test system: HCT-116
U-251 = test system: U-251
ACHN = test system: ACHN
SNB-19 = test system: SNB-19
BT-549 = test system: BT-549
786-0 = test system: 786-0
CAKI-1 = test system: CAKI-1
CCRF-CEM = test system: CCRF-CEM
SK-MEL-2 = test system: SK-MEL-2
SN12C = test system: SN12C
LOX IMVI = test system: LOX IMVI
RPMI-8226 = test system: RPMI-8226
NCI-H522 = test system: NCI-H522
SK-MEL-28 = test system: SK-MEL-28
NCI-H23 = test system: NCI-H23
TK-10 = test system: TK-10
COLO 205 = test system: COLO 205
OVCAR-3 = test system: OVCAR-3
UACC-257 = test system: UACC-257
MDA-MB-435 = test system: MDA-MB-435
MDA-MB-231 = test system: MDA-MB-231
HOP-62 = test system: HOP-62
M14 = test system: M14
Hs-578T = test system: Hs-578T
KM12 = test system: KM12
NCI-H226 = test system: NCI-H226
HOP-92 = test system: HOP-92
Malme-3M = test system: Malme-3M
HT-29 = test system: HT-29
RXF 393 = test system: RXF 393
NCI/ADR-RES = test system: NCI/ADR-RES
EKVX = test system: EKVX
MDA-N = test system: MDA-N
SF-295 = test system: SF-295
SNB-75 = test system: SNB-75

Measured: GI50

Cc1cc(S(=O)(=O)O)ccc1/N=N/c1ccc(/N=N/c2c(O)ccc3ccccc23)c(C)c1
32.1 µM: HCT-15
inactive: K562 > 100 µM | OVCAR-8 49.8 µM | DU-145 > 100 µM | UACC-62 28.8 µM | SF-268 55.3 µM | IGROV-1 54.7 µM | UO-31 80.4 µM | SK-OV-3 > 100 µM | SK-MEL-5 > 100 µM | OVCAR-4 51.2 µM | OVCAR-5 > 100 µM | A549 50.4 µM | T47D > 100 µM | MOLT-4 49.1 µM | PC-3 > 100 µM | SW-620 42.3 µM | HCT-116 34.2 µM | U-251 36.4 µM | ACHN 92.9 µM | SNB-19 > 100 µM | BT-549 > 100 µM | 786-0 21.3 µM | CAKI-1 53.2 µM | CCRF-CEM 18.1 µM | SK-MEL-2 > 100 µM | SN12C 89.7 µM | LOX IMVI 26.9 µM | RPMI-8226 > 100 µM | NCI-H522 26 µM | SK-MEL-28 67.3 µM | NCI-H23 33.2 µM | TK-10 74 µM | COLO 205 > 100 µM | OVCAR-3 39.4 µM | UACC-257 > 100 µM | MDA-MB-435 37.9 µM | MDA-MB-231 20.5 µM | HOP-62 > 100 µM | M14 > 100 µM | Hs-578T > 100 µM | KM12 31.6 µM | NCI-H226 85.3 µM | HOP-92 46.7 µM | Malme-3M > 100 µM | HT-29 70.3 µM | RXF 393 > 100 µM | NCI/ADR-RES > 100 µM | EKVX 82 µM | MDA-N 50.1 µM | SF-295 94.8 µM | SNB-75 41.6 µM
